# ChEMBL document CHEMBL4152374, “A new phenolic series of indenopyridinone as topoisomerase inhibitors: Design, synthesis, and structure-activity relationships” (Bioorg Med Chem, 2018)
# Where a name gives a salt, the structure may show the parent alone.
# Legend:
# [1] = molecular target: DNA topoisomerase 2-alpha (Homo sapiens) (UniProt P11388); assay: Inhibition of human topoisomerase 2-alpha using supercoiled pBR322 plasmid DNA as substrate at 100 uM after 30 mins by agarose gel electrophoresis method relative to etoposide
# [2] = molecular target: T1, DNA topoisomerase 1 (Homo sapiens) (UniProt P11387); assay: Inhibition of human topoisomerase 1 using supercoiled pBR322 plasmid DNA as substrate at 100 uM after 30 mins by agarose gel electrophoresis method relative to control
# T1 sequence (whole entry): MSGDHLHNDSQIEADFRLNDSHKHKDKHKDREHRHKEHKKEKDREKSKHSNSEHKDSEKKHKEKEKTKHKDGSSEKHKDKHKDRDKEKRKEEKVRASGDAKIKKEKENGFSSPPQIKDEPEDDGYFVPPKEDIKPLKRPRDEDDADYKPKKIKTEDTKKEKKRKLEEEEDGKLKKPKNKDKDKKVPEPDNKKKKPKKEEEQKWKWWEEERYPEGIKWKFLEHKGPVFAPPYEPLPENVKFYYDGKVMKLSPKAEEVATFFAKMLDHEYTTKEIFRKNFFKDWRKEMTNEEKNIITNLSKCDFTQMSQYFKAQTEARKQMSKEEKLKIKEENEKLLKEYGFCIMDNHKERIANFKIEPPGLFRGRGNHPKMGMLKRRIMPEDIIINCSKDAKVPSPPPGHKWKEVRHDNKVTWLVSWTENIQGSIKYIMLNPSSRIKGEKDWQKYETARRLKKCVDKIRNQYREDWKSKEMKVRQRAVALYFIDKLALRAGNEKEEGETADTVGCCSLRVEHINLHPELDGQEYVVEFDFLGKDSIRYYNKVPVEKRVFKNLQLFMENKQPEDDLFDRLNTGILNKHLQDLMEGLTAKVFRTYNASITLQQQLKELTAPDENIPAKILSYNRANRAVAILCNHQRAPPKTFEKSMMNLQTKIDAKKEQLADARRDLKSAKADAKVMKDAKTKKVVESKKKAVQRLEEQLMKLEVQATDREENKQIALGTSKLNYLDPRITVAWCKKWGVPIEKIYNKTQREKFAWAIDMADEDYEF
# HeLa = assay: Antiproliferative activity against human HeLa cells after 72 hrs by EZ-CYTOX reagent based assay; assay type: functional, cell-based
# HCT-15 = assay: Antiproliferative activity against human HCT15 cells after 72 hrs by EZ-CYTOX reagent based assay; assay type: functional, cell-based; details: HCT-15, 72 h
# T47D = assay: Antiproliferative activity against human T47D cells after 72 hrs by EZ-CYTOX reagent based assay; assay type: functional, cell-based
# [3] = molecular target: DNA topoisomerase 2-alpha (Homo sapiens) (UniProt P11388); assay: Inhibition of human topoisomerase 2-alpha using supercoiled pBR322 plasmid DNA as substrate at 100 uM after 30 mins by agarose gel electrophoresis method relative to control
# [4] = molecular target: DNA topoisomerase 2-alpha (Homo sapiens) (UniProt P11388); assay: Inhibition of human topoisomerase 2-alpha using supercoiled pBR322 plasmid DNA as substrate at 20 uM after 30 mins by agarose gel electrophoresis method relative to etoposide
# [5] = molecular target: DNA topoisomerase 2-alpha (Homo sapiens) (UniProt P11388); assay: Inhibition of human topoisomerase 2-alpha using supercoiled pBR322 plasmid DNA as substrate at 20 uM after 30 mins by agarose gel electrophoresis method relative to control
# [6] = molecular target: T1, DNA topoisomerase 1 (Homo sapiens); assay: Inhibition of human topoisomerase 1 using supercoiled pBR322 plasmid DNA as substrate at 20 uM after 30 mins by agarose gel electrophoresis method relative to control
# Calf thymus DNA = assay: Inhibition of EtBr binding to calf thymus DNA up to 40 uM by fluorescence spectroscopy; assay type: nucleic-acid assay; details: Bos taurus
# DNA topoisomerase 2-alpha (Homo sapiens), sequence (P11388 whole entry): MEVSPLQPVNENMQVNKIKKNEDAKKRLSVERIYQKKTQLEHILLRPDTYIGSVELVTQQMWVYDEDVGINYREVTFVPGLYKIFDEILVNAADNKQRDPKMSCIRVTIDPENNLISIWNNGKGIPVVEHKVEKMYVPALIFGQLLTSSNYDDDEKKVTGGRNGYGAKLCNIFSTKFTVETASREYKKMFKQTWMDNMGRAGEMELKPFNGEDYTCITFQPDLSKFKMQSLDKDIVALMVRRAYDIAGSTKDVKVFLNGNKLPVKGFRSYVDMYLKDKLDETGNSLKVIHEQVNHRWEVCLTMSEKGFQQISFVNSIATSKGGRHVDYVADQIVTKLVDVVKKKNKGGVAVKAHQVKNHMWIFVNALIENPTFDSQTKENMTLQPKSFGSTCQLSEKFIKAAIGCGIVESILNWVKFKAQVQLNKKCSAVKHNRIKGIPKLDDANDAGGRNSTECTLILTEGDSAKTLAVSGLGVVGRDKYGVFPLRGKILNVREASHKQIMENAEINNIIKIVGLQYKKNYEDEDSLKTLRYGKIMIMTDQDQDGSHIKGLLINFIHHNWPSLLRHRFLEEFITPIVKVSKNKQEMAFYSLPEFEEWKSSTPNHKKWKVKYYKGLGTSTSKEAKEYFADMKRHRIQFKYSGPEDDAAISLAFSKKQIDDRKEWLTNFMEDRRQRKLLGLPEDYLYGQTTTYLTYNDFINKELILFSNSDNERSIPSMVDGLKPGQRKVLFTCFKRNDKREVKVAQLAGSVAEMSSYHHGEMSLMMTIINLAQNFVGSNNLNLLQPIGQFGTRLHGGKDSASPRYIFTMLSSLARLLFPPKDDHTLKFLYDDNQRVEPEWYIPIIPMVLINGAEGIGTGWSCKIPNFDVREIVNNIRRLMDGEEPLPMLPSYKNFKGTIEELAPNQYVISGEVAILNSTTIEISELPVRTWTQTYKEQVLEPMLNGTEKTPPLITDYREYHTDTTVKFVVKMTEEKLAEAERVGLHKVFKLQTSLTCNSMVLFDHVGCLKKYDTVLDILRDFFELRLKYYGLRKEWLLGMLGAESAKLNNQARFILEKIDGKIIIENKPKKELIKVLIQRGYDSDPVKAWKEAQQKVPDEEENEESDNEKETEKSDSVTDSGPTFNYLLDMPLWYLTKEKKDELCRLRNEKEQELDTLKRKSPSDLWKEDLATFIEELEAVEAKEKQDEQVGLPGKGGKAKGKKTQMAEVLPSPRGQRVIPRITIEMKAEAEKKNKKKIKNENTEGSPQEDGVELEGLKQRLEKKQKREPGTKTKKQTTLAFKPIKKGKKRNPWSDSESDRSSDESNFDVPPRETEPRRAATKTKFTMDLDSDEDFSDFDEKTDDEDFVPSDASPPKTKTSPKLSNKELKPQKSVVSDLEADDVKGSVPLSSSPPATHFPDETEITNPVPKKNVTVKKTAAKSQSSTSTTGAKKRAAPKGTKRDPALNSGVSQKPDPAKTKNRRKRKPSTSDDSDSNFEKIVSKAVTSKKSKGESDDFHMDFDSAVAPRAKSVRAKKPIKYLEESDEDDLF
fold change (FC) [1],inhibition [2],inhibition [3],fold change (FC) [4],inhibition [5],inhibition [6],inhibition (Calf thymus DNA),Structure (SMILES),IC50 (HeLa),IC50 (HCT-15),IC50 (T47D)
0.31,0%,23.3%,–,–,–,–,O=C1c2ccccc2-c2nc(-c3ccc(O)cc3)cc(-c3ccccc3)c21,2250 nM,2180 nM,1400 nM
0.32,0%,23.8%,–,–,–,–,O=C1c2ccccc2-c2nc(-c3ccccc3)cc(-c3ccccc3O)c21,2580 nM,2320 nM,1330 nM
1.33 to 1.42,0%,100%,0.61,30.5%,–,–,O=C1c2ccccc2-c2nc(-c3ccc(O)cc3)cc(-c3ccc(O)cc3)c21,4720 nM,1870 nM,370 nM
0.44,0%,32.8%,0.2,9.9%,–,–,O=C1c2ccccc2-c2nc(-c3ccccc3O)cc(-c3ccccc3O)c21,> 50000 nM,> 50000 nM,> 50000 nM
1.04,60%,72.8%,0.27,12%,0%,–,O=C1c2ccccc2-c2nc(-c3ccc(O)cc3)cc(-c3ccccc3O)c21,2300 nM,2820 nM,420 nM
1.33 to 1.42,42.6%,100%,1.88 to 1.89,93.7%,35.4%,Dose-dependent effect,O=C1c2ccccc2-c2nc(-c3cccc(O)c3)cc(-c3ccc(O)cc3)c21,> 50000 nM,9510 nM,1540 nM

# Continued, compound first:
Structure (SMILES),fold change (FC) [1],inhibition [2],inhibition [3],fold change (FC) [4],inhibition [5],inhibition [6],inhibition (Calf thymus DNA),IC50 (HeLa),IC50 (HCT-15),IC50 (T47D)
O=C1c2ccccc2-c2nc(-c3ccccc3)cc(-c3cccc(O)c3)c21,0.12,7.4%,9.3%,–,–,–,–,2240 nM,2480 nM,1180 nM
O=C1c2ccccc2-c2nc(-c3ccccc3)cc(-c3ccccc3)c21,–,5.8%,25%,–,–,–,–,> 50000 nM,> 50000 nM,6500 nM
O=C1c2ccccc2-c2nc(-c3ccccc3O)cc(-c3ccc(O)cc3)c21,0.07,0%,5.2%,–,–,–,–,> 50000 nM,> 50000 nM,> 50000 nM
OC1c2ccccc2-c2nc(-c3ccccc3)cc(-c3ccccc3)c21 (stereo not given),–,81%,21.5%,–,–,0%,–,> 50000 nM,> 50000 nM,> 50000 nM
Oc1cccc(-c2cc(-c3ccccc3)c3c(n2)-c2ccccc2C3O)c1 (stereo not given),–,0%,40.7%,–,0.3%,–,–,> 50000 nM,> 50000 nM,> 50000 nM
CC[C@@]1(O)C(=O)OCc2c1cc1n(c2=O)Cc2cc3ccccc3nc2-1 [CAMPTOTHECIN],–,–,–,–,–,–,–,1370 nM,50 nM,–
COc1cccc2c1C(=O)c1c(O)c3c(c(O)c1C2=O)C[C@@](O)(C(=O)CO)C[C@@H]3O[C@H]1C[C@H](N)[C@H](O)[C@H](C)O1 [DOXORUBICIN HYDROCHLORIDE],–,–,–,–,–,–,–,1500 nM,–,310 nM
